Laboratory results as given in patent US6737383B1, “Herbicidal oxadiazolidines” (priority 1999, dated 2004).

Experiments:
[1] = tested on: wild poinsettia; assay: Test C postemergence wild poinsettia; type: in vivo, Euphorbia heterophylla; details: 0 to 100 scale, 0 no effect, 100 complete control
Method: (§1) Compounds evaluated in this test were formulated in a non-phytotoxic solvent mixture which included a surfactant and applied to plants that were grown for various periods of time before treatment (postemergence application). A mixture of sandy loam soil and greenhouse potting mix in a 60:40 ratio was used for the postemergence test.
(§2) Plantings of these crops and weed species were adjusted to produce plants of appropriate size for the postemergence test. All plant species were grown using normal greenhouse practices. Crop and weed species include arrowleaf sida (Sida rhombifolia), barnyardgrass (Echinochloa crus-galli), cocklebur (Xanthium strumarium), common ragweed (Ambrosia elatior), corn (Zea mays), cotton (Gossypium hirsutum), eastern black nightshade (Solanum ptycanthum), fall panicum (Panicum dichotomiflorum), field bindweed (Convolvulus arvensis), giant foxtail (Setaria faberii), hairy beggarticks (Bidens pilosa), ivyleaf morningglory (Ipomoea hederacea), johnsongrass (Sorghum halepense), ladysthumb smartweed (Polygonum persicaria), lambsquarters (Chenopodium album), large crabgrass (Digitaria sanguinalis), purple nutsedge (Cyperus rotundus), redroot pigweed (Amaranthus retroflexus), soybean (Glycine max), surinam grass (Brachiaria decumbens), velvetleaf (Abutilon theophrasti) and wild poinsettia (Euphorbia heterophylla).
(§3) Treated plants and untreated controls were maintained in a greenhouse for approximately 14, to 21 days, after which all treated plants were compared to untreated controls and visually evaluated. Plant response ratings, summarized in Table C, were based upon a 0 to 100 scale where 0 was no effect and 100 was complete control. A dash response (−) means no test result.

[2] = tested on: eastern black nightshade; assay: Test C postemergence eastern black nightshade; type: in vivo, Solanum ptycanthum; details: 0 to 100 scale, 0 no effect, 100 complete control
Method: as §1, §2, §3

[3] = tested on: barnyardgrass; assay: Test C postemergence barnyardgrass; type: in vivo, Echinochloa crus-galli; details: 0 to 100 scale, 0 no effect, 100 complete control
Method: as §1, §2, §3

[4] = tested on: cotton; assay: Test C postemergence cotton; type: in vivo, Gossypium hirsutum; details: 0 to 100 scale, 0 no effect, 100 complete control
Outline: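 Soil: sandy loam/potting mix 60:40. Treatment: postemergence, solvent + surfactant formulation. Readout: visual control score 0–100 vs untreated at ~14–21 days.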

[5] = tested on: large crabgrass; assay: Test C postemergence large crabgrass; type: in vivo, Digitaria sanguinalis; details: 0 to 100 scale, 0 no effect, 100 complete control
Method: as §1, §2, §3

[6] = tested on: soybean; assay: Test C postemergence soybean; type: in vivo, Glycine max; details: 0 to 100 scale, 0 no effect, 100 complete control
Method: as §1, §2, §3

[7] = tested on: field bindweed; assay: Test C postemergence field bindweed; type: in vivo, Convolvulus arvensis; details: 0 to 100 scale, 0 no effect, 100 complete control
Method: as §1, §2, §3

[8] = tested on: jointed goatgrass; assay: Test E jointed goatgrass; type: in vivo, Aegilops cylindrica; details: Postemergence
Method: as §1, with “in the 1- to 4-leaf stage” for “grown for various periods of time before treatment”
(§4) Plantings of these crops and weed species were adjusted to produce plants of appropriate size for the postemergence test. All plant species were grown using normal greenhouse practices. Crop and weed species include annual bluegrass (Poa annua), blackgrass (Alopecurus myosuroides), black nightshade (Solanum nigra), chickweed (Stellaria media), common poppy (Papaver rhoeas), deadnettle (Lamium amplexicaule), downy brome (Bromus tectorum), field violet (Viola arvensis), galium (Galium aparine), green foxtail (Setaria viridis), Italian ryegrass (Lolium multiflorum), jointed goatgrass (Aegilops cylindrica), kochia (Kochia scoparia), lambsquarters (Chenopodium album), littleseed canarygrass (Phalaris minor), rape (Brassica napus), redroot pigweed (Amaranthus retroflexus), Russian thistle (Salsola kali), scentless chamomile (Matricaria inodora), spring barley (Hordeum vulgare), sugar beet (Beta vulgaris), sunflower (Helianthus annuus), ivyleaf speedwell (Veronica hederaefolia), spring wheat (Triticum aestivum), winter wheat (Triticum aestivum), wild buckwheat (Polygonum convolvulus), wild mustard (Sinapis arvensis), wild oat (Avena fatua), windgrass (Apera spica-venti) and winter barley (Hordeum vulgare).
(§5) Treated plants and untreated controls were maintained in a greenhouse for approximately 21 to 28 days, after which all treated plants were compared to untreated controls and visually evaluated. […] A dash response (-) means no test result.

[9] = tested on: deadnettle; assay: Test E deadnettle; type: in vivo, Lamium amplexicaule; details: Preemergence
[10] = tested on: wild buckwheat; assay: Test E wild buckwheat; type: in vivo, Polygonum convolvulus; details: Postemergence
Method: as §1, with “in the 1- to 4-leaf stage” for “grown for various periods of time before treatment”
as §4, §5

[11] = tested on: barnyardgrass; assay: Test A barnyardgrass; type: in vivo, Echinochloa crus-galli; details: 0 to 10 scale where 0 is no effect and 10 is complete control
Outline: (§6)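 Visual injury score, 0 (no effect) to 10 (complete control), vs untreated controls at ~11 d in greenhouse. Pre: soil drench on sandy loam. Post: spray to runoff, 1–2 leaf stage.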

[12] = tested on: crabgrass; assay: Test A crabgrass; type: in vivo, Digitaria spp.; details: 0 to 10 scale where 0 is no effect and 10 is complete control
Outline: as §6

[13] = tested on: common pursiane; assay: Test D common purslane; type: in vivo, Portulaca oleracea; details: Postemergence, 0 to 100 scale
[14] = Rate 250 g/ha, 0 to 100 scale (0 no effect, 100 complete control)
[15] = Rate 500 g/ha, 0 to 100 scale, 0 no effect, 100 complete control

Row | Structure (SMILES) | Plant response rating Wild poinsettia ([1]; Rate 140 g/ha) | Plant response rating Wild poinsettia ([1]; Rate 280 g/ha) | Plant response rating Wild poinsettia ([1]; Rate 560 g/ha) | Plant response rating Wild poinsettia ([1]; Rate 1120 g/ha) | Plant response rating E. blacknightsh ([2]; Rate 140 g/ha) | Plant response rating E. blacknightsh ([2]; Rate 280 g/ha) | Plant response rating E. blacknightsh ([2]; Rate 1120 g/ha) | Plant response rating, Barnyardgrass ([3]; Rate 140 g/ha) | Plant response rating, Barnyardgrass ([3]; Rate 280 g/ha) | Plant response rating, Barnyardgrass ([3]; Rate 560 g/ha) | Plant response rating, Barnyardgrass ([3]; Rate 1120 g/ha) | Plant response rating Cotton ([4]; Rate 140 g/ha) | Plant response rating Cotton ([4]; Rate 280 g/ha) | Plant response rating Cotton ([4]; Rate 560 g/ha) | Plant response rating Cotton ([4]; Rate 1120 g/ha) | Plant response rating Large crabgrass ([5]; Rate 140 g/ha) | Plant response rating, Barnyardgrass ([11]; Postemergence, Rate 1000 g/ha) | Plant response rating, Barnyardgrass ([11]; Pre-emergence, Rate 2000 g/ha) | Plant response rating, Crabgrass ([12]; Postemergence, Rate 1000 g/ha) | Plant response rating, Crabgrass ([12]; Pre-emergence, Rate 2000 g/ha) | also measured
1 | CC(C)N(C(=O)n1oc(=O)n(C(C)C)c1=O)c1ccc(F)cc1F [Compound 109] | 10 | 30 | 50 | 90 | 50 | 80 | 95 | 60 | 85 | 85 | 95 | 10 | 50 | 70 | 70 | 10 |  |  |  |  | Plant response rating Large crabgrass ([5]; Rate 280 g/ha): 60; Plant response rating Large crabgrass ([5]; Rate 560 g/ha): 90; Plant response rating Large crabgrass ([5]; Rate 1120 g/ha): 90; Plant response rating, Soybean ([6]; Rate 140 g/ha): 35; Plant response rating, Soybean ([6]; Rate 280 g/ha): 70; Plant response rating, Soybean ([6]; Rate 560 g/ha): 85; Plant response rating, Soybean ([6]; Rate 1120 g/ha): 85; Plant response rating Field bindweed ([7]; Rate 140 g/ha): 0; Plant response rating Field bindweed ([7]; Rate 280 g/ha): 0; Plant response rating Field bindweed ([7]; Rate 560 g/ha): 10; Plant response rating Field bindweed ([7]; Rate 1120 g/ha): 10; Plant response rating, Jointed goatgra ([8]; Rate 125 g/ha, 0 to 100 scale): 10; Plant response rating, Jointed goatgra [8, 14]: 5; Plant response rating, Jointed goatgra [8, 15]: 30; Plant response rating, Deadnettle ([9]; Rate 125 g/ha, 0 to 100 scale (0 no effect, 100 complete control)): 20; Plant response rating, Deadnettle ([9]; Rate 250 g/ha, 0 to 100 scale): 30; Plant response rating, Deadnettle ([9]; Rate 500 g/ha, 0 to 100 scale where 0 is no effect and 100 is complete control): 30; Plant response rating, Wild buckwheat ([10]; Rate 125 g/ha, 0 to 100 scale): 10; Plant response rating, Wild buckwheat [10, 14]: 20; Plant response rating, Wild buckwheat [10, 15]: 10
2 | CC(C)N(C(=O)n1oc(=O)n(Cc2ccccc2)c1=O)c1ccccc1 [Compound 94] | 0 | 0 | 60 | 85 | 0 | 40 | 95 | 0 | 0 | 30 | 65 | 20 | 70 | 70 | 80 | 0 |  |  |  |  | Plant response rating E. blacknightsh ([2]; Rate 560 g/ha): 75; Plant response rating Large crabgrass ([5]; Rate 280 g/ha): 0; Plant response rating Large crabgrass ([5]; Rate 560 g/ha): 70; Plant response rating, Soybean ([6]; Rate 140 g/ha): 15; Plant response rating, Soybean ([6]; Rate 280 g/ha): 15; Plant response rating, Soybean ([6]; Rate 560 g/ha): 30; Plant response rating, Soybean ([6]; Rate 1120 g/ha): 55; Plant response rating Field bindweed ([7]; Rate 140 g/ha): 0; Plant response rating Field bindweed ([7]; Rate 280 g/ha): 0; Plant response rating Field bindweed ([7]; Rate 560 g/ha): 0; Plant response rating Field bindweed ([7]; Rate 1120 g/ha): 0
3 | CC(C)N(C(=O)n1oc(=O)n(C2CCCC(C(F)(F)F)C2)c1=O)c1ccc(F)cc1 (stereo not shown) [Compound 184] |  |  |  |  |  |  |  |  |  |  |  |  |  |  |  |  | 2 | 9 | 1 | 9 | 
4 | CC(C)N(C(=O)n1oc(=O)n(N(C)c2ccccc2)c1=O)c1ccc(F)cc1 [Compound 177] |  |  |  |  |  |  |  |  |  |  |  |  |  |  |  |  | 0 | 9 | 3 | 9 | 
5 | CCN(C(=O)n1oc(=O)n(N(C)c2ccccc2)c1=O)C1CCCCC1 [Compound 183] |  |  |  |  |  |  |  |  |  |  |  |  |  |  |  |  | 0 | 9 | 1 | 5 | 
6 | Cc1ccccc1-n1c(=O)on(C(=O)N(c2cc(OC(C)C)c(Cl)cc2Cl)C(C)C)c1=O [Compound 42] |  |  |  |  |  |  |  |  |  |  |  |  |  |  |  |  | 0 | 0 | 0 | 0 | 
7 | CC(C)N(C(=O)n1oc(=O)n(C)c1=O)c1ccc(Cl)cc1 [Compound 137] |  |  |  |  |  |  |  |  |  |  |  |  |  |  |  |  | 8 | 10 | 8 | 10 | 
8 | CC(C)N(C(=O)n1oc(=O)n(C2CC2)c1=O)c1ccc(F)cc1F [Compound 299] |  |  |  |  |  |  |  |  |  |  |  |  |  |  |  |  |  |  |  |  | Plant response rating, C. purslane ([13]; Rate 64 g/ha, 0 no injury, 100 complete control): 0; Plant response rating, C. purslane ([13]; Rate 125 g/ha, 0 no injury, 100 complete control): 0; Plant response rating, C. purslane ([13]; Rate 250 g/ha): 0; Plant response rating, C. purslane ([13]; Rate 500 g/ha): 0
9 | Cc1ccc(N(C(=O)n2oc(=O)n(C(C)C)c2=O)C(C)C)cc1 [Compound 132] | 0 | 0 | 0 | 0 | 0 | 0 | 0 | 50 | 50 | 80 | 95 | 5 | 10 | 20 | 40 | 0 |  |  |  |  | Plant response rating E. blacknightsh ([2]; Rate 560 g/ha): 0; Plant response rating Large crabgrass ([5]; Rate 280 g/ha): 10; Plant response rating Large crabgrass ([5]; Rate 560 g/ha): 40; Plant response rating Large crabgrass ([5]; Rate 1120 g/ha): 80; Plant response rating, Soybean ([6]; Rate 140 g/ha): 5; Plant response rating, Soybean ([6]; Rate 280 g/ha): 20; Plant response rating, Soybean ([6]; Rate 560 g/ha): 30; Plant response rating, Soybean ([6]; Rate 1120 g/ha): 40; Plant response rating Field bindweed ([7]; Rate 140 g/ha): 0; Plant response rating Field bindweed ([7]; Rate 280 g/ha): 0; Plant response rating Field bindweed ([7]; Rate 560 g/ha): 40; Plant response rating Field bindweed ([7]; Rate 1120 g/ha): 70
